According to PubChem BioAssay AID1996:
Values after ≈ are worked out from the molar mass of the structure shown. Residues, ends and D or L forms follow the SMILES beside them.

conditions: buffer; pH 7.4; 200.0 µM

solubility kinetic [µg/mL] | SMILES
55.2 (≈ 137 µM) | Cc1cnc(C(=O)OCC(=O)N=c2sccn2Cc2ccccc2Cl)cn1
30.2 (≈ 108 µM) | O=C(NC(=O)N1CCCc2ccccc21)c1ccccc1
1.1 (≈ 4.21 µM) | CC(=O)n1c2ccccc2c2nc3ccccc3nc21
< 0.4 | COc1ccc(C2CC(C)(c3ccc(OC)cc3)Nc3ccccc3N2)cc1 (centres undefined)
2.1 (≈ 6.42 µM) | CCOC(=O)c1ccc(NC(=O)C2COc3ccccc3O2)cc1 (centres undefined)
> 60.1 | Cc1cccc(OCC(=O)OCC(=O)N2CCN(C(=O)c3ccco3)CC2)c1C
49 | Cc1ccc(-c2nc(N3CCN(C)CC3)c3ccccc3n2)cc1.Cl
> 62.3 | Cc1ccc(S(=O)(=O)NCC(=O)OCC(=O)N(CCC#N)c2ccccc2)cc1
6.6 (≈ 20.5 µM) | C/C(=N\OC(=O)c1ccc(C)cc1)c1c(C)nc2cc(C)ccn12
5.5 (≈ 19.7 µM) | Cc1cccc(C(=O)Nc2ccc3c(c2)nc(C)n3C)c1
9.4 (≈ 21.9 µM) | Cc1ccc(S(=O)(=O)N2CCCCC2)cc1NC(=O)CCNC(=O)c1ccccc1
> 41.3 | CCN1CCN(CCC(=O)Nc2ccccc2C)CC1
> 61.7 | O=[N+]([O-])c1ccccc1S(=O)(=O)Nc1ccc(S(=O)(=O)N2CCCC2)cc1
21.1 (≈ 86.7 µM) | Cc1ccc(NC(=O)CCc2ccc(C)o2)cc1
> 41.4 | CCc1noc(C)c1C(=O)NCCc1ccc(F)cc1
> 45.9 | COC(=O)c1ccccc1NC(=O)Nc1ccc(Cl)cn1
> 45.4 | C=CCNC(=O)c1ccccc1SCc1c(C)noc1C
27.8 (≈ 88.1 µM) | Cc1ccccc1Cn1c(-c2ccc(=O)[nH]c2)nc2ccccc21
3.3 (≈ 10.3 µM) | N#Cc1nc(-c2cccc3ccccc23)oc1NCC1CCCO1 (centres undefined)
4.7 (≈ 16.9 µM) | Cc1ccc(-c2nc(C=Nc3ccccc3)c(O)o2)cc1
> 44.1 | COC(=O)[C@H](Cc1ccccc1)NC(=O)[C@@H](N)CC(=O)O (H-Asp-Phe-OMe)
< 0.4 | CCOc1ccc(NC(=O)c2ccc(-c3csc(C)n3)cc2)cc1
< 0.4 | Cc1ccc(C(=O)Nc2cccc3cccnc23)cc1Br

solubility kinetic [µg/mL] | SMILES
< 0.7 | CCOc1ccccc1NC(=O)COc1ccc2c(c1)OCO2
25.6 (≈ 75.6 µM) | CCOC(=O)N1CCN(CC(c2ccccc2)c2ccccc2)CC1
> 54 | CC(C)N(Cc1cnn(C)c1)Cc1nc(Cc2ccccc2Cl)no1
0.8 (≈ 2.5 µM) | COc1cc2c(cc1Cl)C(=O)C(F)(c1ccccc1)C(=O)N2 (centres undefined)
> 46 | O=C(CCC(=O)NC1CCCCC1)NCc1ccc(F)cc1
< 0.2 | O=c1[nH]c2cc3c(cc2cc1CN(Cc1cccnc1)C(=S)NCc1ccco1)OCCO3
41.2 (≈ 144 µM) | O=C1CC2C(=O)NCCN2C(=NC(=O)c2ccccc2)N1 (centres undefined)
28.8 (≈ 79.4 µM) | Cc1[nH]c2c(C)cccc2c1CN1CCC(CO)(Cc2ccccc2)CC1
> 51.8 | CCCC(=O)N1CCN(Cc2nc3cc([N+](=O)[O-])ccc3n2C)CC1
32.9 (≈ 109 µM) | Cc1ccc(OCC(=O)NCCNC(=O)c2ccco2)cc1
2.2 (≈ 7.5 µM) | O=c1oc2ccccc2n1Cc1cccc(C(F)(F)F)c1
8 (≈ 28.5 µM) | COc1ccc(NCc2cc(=O)[nH]c3ccccc23)cc1
11.5 (≈ 23.5 µM) | Cc1cccc(C)c1NC(=O)COC(=O)c1cc(S(=O)(=O)Nc2ccc(Cl)cc2)ccc1O
> 43.9 | OC(C#CCN1CCCC1)(c1ccccc1)c1cccnc1 (centres undefined)
> 52.5 | CC1CN(C(=O)c2ccc(COc3ccccc3Cl)o2)CC(C)O1 (centres undefined)
26.3 | O=C(C[n+]1ccccc1)Nc1ccccc1
> 61.3 | O=C(NCCCN1CCOCC1)c1cn(-c2ccccc2)nc1-c1ccc(F)cc1
< 0.6 | O=C(Nc1ccc(C(=O)c2ccccc2)cc1)c1ccccc1
> 47.4 | Cc1ccc(Cl)c(NC(=O)CN2CCNC(=O)C2)c1Cl
29.2 (≈ 102 µM) | Cc1ccc(OCCNC(=O)Cc2ccc(F)cc2)cc1
1.3 (≈ 5.13 µM) | Cc1ccc2c(c1)/C(=C/c1ccccc1F)C(=O)N2
> 42.9 | COc1ccccc1C(=O)COC(=O)c1cnc(C)cn1
12.4 (≈ 41.3 µM) | COc1cccc(NCCC(=O)c2cccc([N+](=O)[O-])c2)c1

solubility kinetic [µg/mL] | SMILES
8.7 (≈ 27 µM) | FC(F)(F)c1cccc(CN2CCN(c3ncccn3)CC2)c1
38.2 | Cc1ccccc1OCC(O)CNC1CCCC1.Cl (centres undefined)
12.8 (≈ 44.7 µM) | CCc1ccc(/C=C2\SC(N3CCCC3)=NC2=O)cc1
1.1 (≈ 5.13 µM) | O=[N+]([O-])c1ccccc1Nc1ccccc1
0.3 (≈ 1.01 µM) | COc1ccc(-c2nc(C#N)c(N3CCC(C)CC3)o2)cc1
2.3 | CCCN1C[C@H](CSC)C[C@@H]2c3cccc4[nH]cc(c34)C[C@H]21.CS(=O)(=O)O
> 39 | COCCNc1nnc(Cc2ccccc2)c(=O)[nH]1
> 36.3 | COc1ccccc1CNC(=O)c1ccncc1
> 51.5 | CCCC1(CCC)NC(=O)N(CC(=O)N2CCc3ccccc32)C1=O
> 45.1 | Cc1ccc(C(=O)N(C)CC(=O)Nc2cccc(C)c2C)o1
12.4 (≈ 24.2 µM) | Cc1ccc(NC(=O)COC(=O)Cc2ccc(Br)cc2)cc1S(=O)(=O)N1CCOCC1
< 0.6 | CC(=O)c1cn(CCOc2ccccc2C)c2ccccc12
1.4 (≈ 4.11 µM) | COc1ccc(NC(=O)C2CCCN(c3nc(C)cc(C)n3)C2)cc1 (centres undefined)
0.6 (≈ 1.8 µM) | CCN(CC)c1ccc(NC(=O)Nc2cccc3ccccc23)cc1
< 0.4 | Cc1ccc(NC(=S)NCCSc2ccc(Cl)cc2)cc1
2.1 (≈ 6.21 µM) | COCCCn1c(=O)c2ccccc2n(Cc2ccc(C)cc2)c1=O
> 49.3 | O=C(O)c1cccnc1SC1CC(=O)N(c2ccccc2)C1=O (centres undefined)
53.3 (≈ 142 µM) | CCOc1ccc(S(=O)(=O)Nc2ccc(C(=O)N3CCCC3)cc2)cc1
43.9 (≈ 126 µM) | COc1ccc(CC(=O)Nc2ccccc2-c2ccccc2)cc1OC
14.4 (≈ 49.5 µM) | OCc1nc2ccccc2n1Cc1c(F)cccc1Cl
> 45.8 | Cc1ccccc1S(=O)(=O)Nc1ncnc2sccc12
8.9 (≈ 27.3 µM) | COc1cc(C(C[N+](=O)[O-])c2c(C)cc3ccccn23)ccc1O (centres undefined)

Continued, molecule first:

SMILES | solubility kinetic [µg/mL]
COC(=O)C1(NC(=O)NC2CCCCC2)CCCCC1 | > 42.4
CC(=O)N1CCN(c2c(F)c(F)c(C(F)(F)F)c(F)c2F)CC1 | 47.9 (≈ 139 µM)
CC(C)c1ccc(S(=O)(=O)Nc2ccc3c(c2)OCO3)cc1 | 26.4 (≈ 82.7 µM)
COc1ccccc1OCCNC(=O)Nc1cc(F)c(F)cc1Cl | 0.7 (≈ 1.96 µM)
N=C1c2ccccc2CN1c1ccc(F)c([N+](=O)[O-])c1 | > 40.7
CC(C)NCC(=O)C12CC3CC(CC(C3)C1)C2 | 28.7 (≈ 122 µM)
CC(=O)Nc1ccc2sccc2c1 | 27.9 (≈ 146 µM)
CCC(=O)c1ccc(OCC(=O)Nc2nc(C)cs2)cc1 | 8.9 (≈ 29.2 µM)
CSc1ccccc1NC(=S)NC1CCCC1 | > 40
O=C(Nc1cccc(Cl)c1Cl)C1CCCO1 (centres undefined) | 26.7 (≈ 103 µM)
O=C(COC(=O)c1c(Cl)cccc1Cl)NCc1cccs1 | > 51.6
Cn1cnc([N+](=O)[O-])c1C(=O)Nc1cccc([N+](=O)[O-])c1 | 11.2 (≈ 38.5 µM)
COc1cc(OC)c(NC(=O)c2csc(C)c2)cc1Cl | < 0.7
CC(=O)C1=C(C)OC(N)=C(C#N)C1c1cccnc1 (centres undefined) | > 38.3
NC(=O)COC(=O)C1CSC2(c3ccc(F)cc3)CCC(=O)N12 (centres undefined) | 49.4 (≈ 146 µM)
Cc1cc(-c2onc(C)c2C(N)=O)no1 | > 31.1
N#Cc1sc(NCc2cccc(Cl)c2)nc1Cl | 2.4 (≈ 8.45 µM)
O=C(Nc1cccc([N+](=O)[O-])c1)Nc1cnccn1 | 1.2 (≈ 4.63 µM)
N/C(=N\OC(=O)CCC1CCCC1)c1ccc(Cl)cc1 | 1.2 (≈ 4.07 µM)
O=S(=O)(NC1=NCCCCC1)c1cc(F)ccc1F | > 43.2
CN1CCC2(CC1)C(C#N)=C(N)NC(S)=C2C#N | > 39.2
COc1cc(/C=C\C(=O)O)cc(S(=O)(=O)N2CCCCCC2)c1OC | 52.8 (≈ 143 µM)
Cc1ccc(NS(=O)(=O)c2c(F)cc(F)c(Cl)c2F)cc1S(=O)(=O)N1CCOCC1 | > 72.7
CC1CN(C(=S)Nc2ccc(Cl)cc2)CC(C)O1 (centres undefined) | > 42.7
O=S(=O)(NC1CC2CCC1C2)c1ccc(Cl)cc1 (centres undefined) | 38.4 (≈ 134 µM)
Cn1c(=O)c2c(nc(NC3CCCC3)n2C)n(C)c1=O | > 41.6

SMILES | solubility kinetic [µg/mL]
O=C(CSc1nc(O)cc(=O)[nH]1)N1CCOCC1 | > 40.7
C=Cn1cc[n+](CC(=O)c2ccc(Br)cc2)c1.[Br-] | > 55.8
CC(=O)N(CCC1(C(C)C)CCOC(C)(C)C1)C(C)c1cccs1 (centres undefined) | 51.1 (≈ 145 µM)
CCN(CC)P(=O)(Oc1ccccc1)Oc1ccccc1 | 34.2 (≈ 112 µM)
Cc1nc(N)ncc1-c1ccc2c(c1)OCO2 | 10.8 (≈ 47.1 µM)
CCOC(=O)C1CCN(C(=O)Nc2ccc(OC(F)(F)F)cc2)CC1 | 16.1 (≈ 44.7 µM)
Cc1cccc(S(=O)(=O)NC2CCCCCCC2)c1 | 25.2 (≈ 89.5 µM)
CCCc1ncc(C(O)c2cccc(OC)c2)n1C (centres undefined) | > 39.1
O=C(O)[C@@H]1Cc2ccccc2N1 | 6.6 (≈ 40.4 µM)
O=C(CSc1cccc[n+]1[O-])NCC1CCCCC1 | > 42.1
COc1ccc(CCn2c(C)c(C(C)=O)c(C(C)=O)c2C)cc1OC | > 51.5
Nc1nc(F)nc2c1ncn2[C@@H]1O[C@H](CO)[C@@H](O)[C@H]1O | > 42.8
O=C1CCCc2nc3c(cc21)C(O)Oc1ccccc1-3 (centres undefined) | 19.4 (≈ 72.6 µM)
CC1CCC(NC(=O)C(=O)Nc2ccc3c(c2)OCO3)CC1 (centres undefined) | 0.5 (≈ 1.64 µM)
CCSc1ncc(Cl)c(C(=O)Nc2ccccc2Cl)n1 | < 0.2
O=C(CCSCc1ccccc1Cl)NC1CCCCC1 | 8.1 (≈ 26 µM)
COc1ccc2c(c1)c(CC[NH3+])c(C)n2Cc1ccccc1.[Cl-] | 44.5
CCOC(=O)CNC(=O)CSc1nc(-c2ccc(C)cc2)ns1 | 11.1 (≈ 31.6 µM)
O=C(Nc1ccccc1C(F)(F)F)c1ccc2nccnc2c1 | > 47.6
COc1ccc(C(=O)c2cnc[nH]2)cc1 | > 30.3
O=C(Nc1ccc(Cl)cc1)c1cc(-c2cccs2)on1 | < 0.3
COC(=O)c1cc(Sc2c(Cl)cccc2Cl)ccn1 | 37 (≈ 118 µM)
C[C@@H]1C2CC(C/C2=N\NC(=O)c2ccncc2)C1(C)C (some centres undefined) | > 40.7
N/C(=N\OC(=O)c1ccc(Br)cc1)c1cccc([N+](=O)[O-])c1 | 0.8 (≈ 2.2 µM)
CSc1nc(N)cc(=O)[nH]1 | > 23.6
